The test system of the first assay is episomal HPV-16 DNA in W12-20850 cells. The assay is described as follows: W-12 cellular assay: episomal HPV-16 DNA quantified by hybrid capture in W12-20850 cells. The format is cell-based, HPV16. To be noted: Human papillomavirus 16, 96 h, four days incubation, inhibition of episomal HPV-16 DNA relative to untreated control. The protocol: Compounds of the current invention are believed useful in the treatment and/or prophylaxis of conditions and diseases associated with HPV infection. Activity mediated through HPV was determined using the following W-12 cellular assay. The […] cell line used contains HPV16 DNA and was derived from a low-grade cervical dysplasia tissue by Margaret Stanley and subsequently clonally selected by Paul Lambert (University of Wisconsin). One of these clones, […]-20850, contains 1000 copies of episomal HPV16 DNA and was used in the cell-based assay. […]-20850 cells were routinely cultured with a gamma-irradiated (6000 rads) feeder layer of 3T3 cells. Assays, however, were run in the absence of a 3T3 feeder layer. […]-20850 and 3T3 cells were routinely split when they were sub-confluent. […]-20850 were grown in […] Medium which is constituted of 25% DMEM (Gibco BRL, Cat # 12430-047), 75% F12 Media (Gibco BRL, Cat # 11765-021) and 2.5% FBS. The additives include […] Adenine (Sigma, Cat # A-9795), […] Hydrocortisone (Calbiochem, Cat # 386698), […] Bovine Insulin (Sigma, Cat # 1-1882), 8.4 ng/ml cholera toxin (Fluka, Cat # 26694) and 10 ng/ml EGF (Invitrogen, Cat # 13247-051). 3T3 cells were grown in DMEM containing 10% FBS. Cell lines were incubated at 37° C., in the presence of 5% CO2. For the assay, […]-20850 cells were seeded into a 96 well plate-containing compound. Plates were incubated at 37° C. in the presence of 5% CO2, for four days. On the fourth day, cells were lysed and the amount of episomal HPV-16 DNA was quantified using a non-radioactive hybrid capture technique with HPV-16 specific capture and detection probes. The percent inhibition relative to untreated control cells was then determined. The hybrid capture assay is run in a 96 well plate format. Hybridization plates (Nunc Maxisorb Cat # 450320) were coated with a mixture of capture probe and ReactiBind solution for at least 4 hours and then washed with 0.2×SSC, 0.05% Tween-20 (SSCT) prior to blocking with 150 μl/well of 0.2 N NaOH, 1% Igepal, 10 mg/ml hsDNA for 6-8 hours. The hybridization was carried out by mixing 27 μl of lysed cells with 45 μl of denatured detection probe in 6M guanidine isothiocyanate. To prevent evaporation, 50 μl of mineral oil was added to each well. The plate was then heated to 90° C. for 6.5 minutes and the hybridization continued at 42° C. overnight. Assay plates were washed 6 times with SSC/T. Anti-digoxigenin HRP-conjugated Ab (Boehringer Mannheim 1207733, 1:5000) was incubated in the wells for 30 min at room temperature and washed with PBS/0.05% Tween-20. SuperSignal LBA substrate (Pierce Cat # 37070) was added, and chemiluminescence was measured using Wallac 1420 Victor plate reader.
What is called IC50 is the concentration needed to halve the response being measured. Lower therefore signals inhibition by little substance. In the case of `COC(=O)N1CCc2c([nH]c3ccc(Cl)cc23)C1c1ccc(C)cc1` (stereo not drawn) [Example 2, Methyl 6-chloro-1-(4-methylphenyl)-1,3,4,9-tetrahydro-2H-β-carboline-2-carboxylate], 68 nM corresponded to half-maximal inhibition (IC50).
The compound `Cc1ccc(C2c3[nH]c4ccc(Cl)cc4c3CCN2C(=O)CCc2ccccc2)cc1` (stereo not drawn) [Example 3, 6-Chloro-1-(4-methylphenyl)-2-(3-phenylpropanoyl)-2,3,4,9-tetrahydro-1H-β-carboline] displayed an IC50 of 60 nM.
Compound `Cc1ccc(C2c3[nH]c4ccc(Cl)cc4c3CCN2C(=O)OCc2ccccc2)cc1` (stereo not drawn) [Example 4, Phenylmethyl 6-chloro-1-(4-methylphenyl)-1,3,4,9-tetrahydro-2H-β-carboline-2-carboxylate] came in with a 50% inhibitory concentration (IC50) of 22 nM.
As for `COC(=O)N1CCc2c([nH]c3ccc(F)cc23)C1c1ccc(C)cc1` (stereo not drawn) [Example 6, Methyl 6-fluoro-1-(4-methylphenyl)-1,3,4,9-tetrahydro-2H-β-carboline-2-carboxylate], 365 nM corresponded to half-maximal inhibition (IC50).
For the compound `Cc1ccc(C2c3[nH]c4ccc(F)cc4c3CCN2C(=O)CCc2ccccc2)cc1` (stereo not drawn) [Example 7, 6-Fluoro-1-(4-methylphenyl)-2-(3-phenylpropanoyl)-2,3,4,9-tetrahydro-1H-β-carboline], the IC50 was found to be 216 nM.
Still for that read-out and setting: next, `Cc1ccc(C2c3[nH]c4ccc(F)cc4c3CCN2C(=O)OCc2ccccc2)cc1` (stereo not drawn) [Example 8, Phenylmethyl 6-fluoro-1-(4-methylphenyl)-1,3,4,9-tetrahydro-2H-β-carboline-2-carboxylate]: 446 nM; `COC(=O)N1CCc2c([nH]c3ccc(Br)cc23)C1c1ccc(C)cc1` (stereo not drawn) [Example 10, Methyl 6-bromo-1-(4-methylphenyl)-1,3,4,9-tetrahydro-2H-β-carboline-2-carboxylate]: 11 nM.
`Cc1ccc(C2c3[nH]c4ccc(Br)cc4c3CCN2C(=O)CCc2ccccc2)cc1` (stereo not drawn) [Example 11, 6-Bromo-1-(4-methylphenyl)-2-(3-phenylpropanoyl)-2,3,4,9-tetrahydro-1H-β-carboline] showed an IC50 of 20 nM.
`Cc1ccc(C2c3[nH]c4ccc(Br)cc4c3CCN2C(=O)OCc2ccccc2)cc1` (stereo not drawn) [Example 12, Phenylmethyl 6-bromo-1-(4-methylphenyl)-1,3,4,9-tetrahydro-2H-β-carboline-2-carboxylate] gave an IC50 of 14 nM.
Still for that read-out and setting: next, `Cc1ccc([C@@H]2c3[nH]c4ccc(Cl)cc4c3CCN2C(=O)CCc2ccccc2)cc1` [Example 13, (1R)-6-Chloro-1-(4-methylphenyl)-2-(3-phenylpropanoyl)-2,3,4,9-tetrahydro-1H-β-carboline]: 8000 nM; `Cc1ccc([C@H]2c3[nH]c4ccc(Cl)cc4c3CCN2C(=O)CCc2ccccc2)cc1` [Example 14, (1S)-6-Chloro-1-(4-methylphenyl)-2-(3-phenylpropanoyl)-2,3,4,9-tetrahydro-1H-β-carboline]: 15 nM.
On the same count and under the same terms, for `Cc1ccc(C2c3[nH]c4ccccc4c3CCN2S(=O)(=O)Cc2ccccc2)cc1` (stereo not drawn) [Example 15, 1-(4-Methylphenyl)-2-[(phenylmethyl)sulfonyl]-2,3,4,9-tetrahydro-1H-β-carboline] the value was 7000 nM; for `Cc1ccc(C2c3[nH]c4ccccc4c3CCN2S(C)(=O)=O)cc1` (stereo not drawn) [Example 16, 1-(4-Methylphenyl)-2-(methylsulfonyl)-2,3,4,9-tetrahydro-1H-β-carboline], 24000 nM; for `Cc1ccc(C2c3[nH]c4ccccc4c3CCN2S(=O)(=O)c2ccc(N)cc2)cc1` (stereo not drawn) [Example 17, (4-{[1-(4-Methylphenyl)-1,3,4,9-tetrahydro-2H-b-carbolin-2-yl]sulfonyl}phenyl)amine], 10000 nM.
Still for that read-out and setting: next, `CC(=O)N1CCc2c([nH]c3ccccc23)C1c1ccc(C)cc1` (stereo not drawn) [Example 18, 2-Acetyl-1-(4-methylphenyl)-2,3,4,9-tetrahydro-1H-β-carboline]: 5000 nM.
With `Cc1ccc(C2c3[nH]c4ccccc4c3CCN2C(=O)CCc2ccccc2)cc1` (stereo not drawn) [Example 19, 1-(4-Methylphenyl)-2-(3-phenylpropanoyl)-2,3,4,9-tetrahydro-1H-β-carboline], the IC50 came out at 1000 nM.
For `Cc1ccc(C2c3[nH]c4ccccc4c3CCN2C(=O)C#Cc2ccccc2)cc1` (stereo not drawn) [Example 20, 1-(4-Methylphenyl)-2-(3-phenyl-2-propynoyl)-2,3,4,9-tetrahydro-1H-b-carboline], half-maximal inhibition (IC50) required 26000 nM.
For the compound `Cc1ccc(C2c3[nH]c4ccccc4c3CCN2C(=O)CCc2cccnc2)cc1` (stereo not drawn) [Example 21, 1-(4-Methylphenyl)-2-[3-(3-pyridinyl)propanoyl]-2,3,4,9-tetrahydro-1H-β-carboline], the IC50 turned out to be 18000 nM.
On the same count and under the same terms, for `Cc1ccc(C2c3[nH]c4ccccc4c3CCN2C(=O)CNC(=O)OCc2ccccc2)cc1` (stereo not drawn) [Example 22, Phenylmethyl {2-[1-(4-methylphenyl)-1,3,4,9-tetrahydro-2H-b-carbolin-2-yl]-2-oxoethyl}carbamate] the value was 4000 nM.
The same measure, in the same setting: for `COc1ccc2[nH]c3c(c2c1)CCN(C(=O)CCc1ccccc1)C3c1ccc(C)cc1` (stereo not drawn) [Example 23, 6-(Methyloxy)-1-(4-methylphenyl)-2-(3-phenylpropanoyl)-2,3,4,9-tetrahydro-1H-β-carboline] the value was 600 nM; for `Cc1ccc(C2c3[nH]c4c(C)cccc4c3CCN2C(=O)CCc2ccccc2)cc1` (stereo not drawn) [Example 24, 8-Methyl-1-(4-methylphenyl)-2-(3-phenylpropanoyl)-2,3,4,9-tetrahydro-1H-β-carboline], 2000 nM.
Compound `Cc1ccc(C2c3[nH]c4ccc(C)cc4c3CCN2C(=O)CCc2ccccc2)cc1` (stereo not drawn) [Example 25, 6-Methyl-1-(4-methylphenyl)-2-(3-phenylpropanoyl)-2,3,4,9-tetrahydro-1H-β-carboline] displayed an IC50 of 400 nM.
`Cc1ccc(C2c3[nH]c4cc(F)ccc4c3CCN2C(=O)CCc2ccccc2)cc1` (stereo not drawn) [Example 26, 7-Fluoro-1-(4-methylphenyl)-2-(3-phenylpropanoyl)-2,3,4,9-tetrahydro-1H-β-carboline] displayed an IC50 of 2000 nM.
On the same count and under the same terms, for `COc1ccc2c3c([nH]c2c1)C(c1ccc(C)cc1)N(C(=O)CCc1ccccc1)CC3` (stereo not drawn) [Example 27, 7-(Methyloxy)-1-(4-methylphenyl)-2-(3-phenylpropanoyl)-2,3,4,9-tetrahydro-1H-β-carboline] the value was 6000 nM; for `O=C(/C=C/c1ccccc1)N1CCc2c([nH]c3ccccc23)[C@H]1c1ccc2c(c1)CCO2` [Example 30, (1R)-1-(2,3-dihydro-1-benzofuran-5-yl)-2-[(2E)-3-phenyl-2-propenoyl]-2,3,4,9-tetrahydro-1H-β-carboline], > 20000 nM.
`O=C(/C=C/c1ccccc1)N1CCc2c([nH]c3ccccc23)[C@@H]1c1ccc2c(c1)CCO2` [Example 31, (1S)-1-(2,3-dihydro-1-benzofuran-5-yl)-2-[(2E)-3-Phenyl-2-propenoyl]-2,3,4,9-tetrahydro-1H-β-carboline] had an IC50 of 2000 nM.
Same read-out and setting: for `COc1ccc(-c2ccnc(N3CCc4c([nH]c5ccccc45)C3c3ccc4c(c3)OCO4)n2)cc1` (stereo not drawn) [Example 32, 1-(1,3-benzodioxol-5-yl)-2-{4-[4-(methyloxy)phenyl]-2-pyrimidinyl}-2,3,4,9-tetrahydro-1H-β-carboline] the value was 2000 nM; for `c1cnc(N2CCc3c([nH]c4ccccc34)C2c2ccc3c(c2)OCO3)nc1` (stereo not drawn) [Example 33, 1-(1,3-benzodioxol-5-yl)-2-(2-pyrimidinyl)-2,3,4,9-tetrahydro-1H-β-carboline], 5000 nM.
On to `c1ccc(-c2ccnc(N3CCc4c([nH]c5ccccc45)C3c3ccc4c(c3)OCO4)n2)cc1` (stereo not drawn) [Example 34, 1-(1,3-benzodioxol-5-yl)-2-(4-phenyl-2-pyrimidinyl)-2,3,4,9-tetrahydro-1H-β-carboline], for which it took 2000 nM to reach half-maximal inhibition (IC50).

The same assay, now with this note: four days incubation, inhibition of episomal HPV-16 DNA relative to untreated control.
Turning to `O=C(/C=C/c1ccccc1)N1CCc2c([nH]c3ccccc23)C1c1ccc2c(c1)CCO2` (stereo not drawn) [Example 29, (1R/1S)-1-(2,3-dihydro-1-benzofuran-5-yl)-2-[(2E)-3-phenyl-2-propenoyl]-2,3,4,9-tetrahydro-1H-β-carboline], the IC50 came out at 3000 nM.

The values are drawn from patent publication US20080103164A1, “USEFUL COMPOUNDS FOR HPV INFECTION” (priority 2004, published 2008).
